The text below walks through data of patent US20200308170A1, “KRAS G12C INHIBITORS” (Mirati Therapeutics, Inc., priority 2017, published 2020).

This assay concerns the target KRas G12C (Homo sapiens, UniProt P01116, G12C). In words: Inhibition of KRas G12C in NCI-H358 cells measured by phosphorylated ERK (Phospho-ERK). Type of assay: cell-based. The note with it: 3 hours, 4 parameter fit, read-out: IC50 (pERK(Thr202/Tyr204) signal normalized with GAPDH). The protocol:
Cells were plated in poly-D-Lysine coated 96-well plates at a concentration of 50,000 cells/well and allowed to attach for 8-12 hours. Diluted compounds were then added at a final concentration of 0.5% DMSO. After 3 hours, the medium was removed, 150 μL of 4% formaldehyde was added and the plates were incubated for 20 minutes. The plates were washed with PBS, and permeabilized using 150 μL of ice cold 100% methanol for 10 minutes. Non-specific antibody binding to the plates was blocked using 100 μL Licor Blocking Buffer (Li-Cor Biotechnology, Lincoln Nebr.) for 1 hour at room temperature. Positive control samples and samples lacking cells were parallel processed with test samples as standards.
The amount Phospho-ERK was determined using an antibody specific for the phosphorylated form of ERK and compared to the amount of GAPDH. […] The plates were incubated for 2 hours at room temperature. The plates were washed with PBS+0.05% Tween 20.
Secondary antibodies used to visualize primary antibodies were added as follows: Anti-rabbit-680 diluted 1:1000 and Anti-mouse-800 diluted 1:1000 in Licor Block+0.05% Tween 20 and incubated for 1 hour at room temperature. The plates were washed with PBS+0.05% Tween 20. A 100 μL aliquot of PBS was added to each well and the plates were read on a LICOR AERIUS plate reader.
The pERK(Thr202/Tyr204) signal was normalized with the GAPDH signal and percent of DMSO control values were calculated. IC50 values were generated using a 4 parameter fit of the dose response curve.

Sequence of KRas G12C (P01116 1-188 isoform P01116-2 G12C): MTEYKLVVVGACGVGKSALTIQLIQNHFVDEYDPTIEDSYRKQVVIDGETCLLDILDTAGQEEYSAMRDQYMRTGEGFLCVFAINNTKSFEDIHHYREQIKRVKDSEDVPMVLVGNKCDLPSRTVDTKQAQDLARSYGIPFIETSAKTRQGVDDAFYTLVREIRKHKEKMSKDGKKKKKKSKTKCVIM

`C=C(F)C(=O)N1CCN(c2nc(OCC3CN(C)CCC34CN(C)C4)nc3c2CCN(c2cccc4ccc(F)c(Cl)c24)C3)C[C@@H]1CC#N` (stereo partly drawn) [Example 162]: the IC50 lay in the range of 0.0001 to 1 µM.

Take `C=C(F)C(=O)N1CCN(c2nc(OCCn3ccnc3)nc3c2CCN(c2cccc4ccc(F)c(Cl)c24)C3)C[C@@H]1CC#N` [Example 163]: the IC50 lay in the range of 1 to 10 µM.

`C=C(F)C(=O)N1CCN(c2nc(OCC(C)N3C[C@@H](C)O[C@@H](C)C3)nc3c2CCN(c2cccc4ccc(F)c(Cl)c24)C3)C[C@@H]1CC#N` (stereo partly drawn) [Example 164]: the IC50 lay in the range of 1 to 10 µM.

Turning to `C=C(F)C(=O)N1CCN(c2nc(OCCN3CCCCCC3)nc3c2CCN(c2cccc4ccc(F)c(Cl)c24)C3)C[C@@H]1CC#N` [Example 165], the IC50 fell in the range of 0.0001 to 1 µM.

Regarding `C=C(F)C(=O)N1CCN(c2nc(OCC34CCC(CC3)CN4C)nc3c2CCN(c2cccc4ccc(F)c(Cl)c24)C3)C[C@@H]1CC#N` [Example 166], the IC50 lay in the range of 0.0001 to 1 µM.

As to `C=C(F)C(=O)N1CCN(c2nc(OC[C@@H]3COCCN3Cc3ccccc3)nc3c2CCN(c2cccc4ccc(F)c(Cl)c24)C3)C[C@@H]1CC#N` [Example 167], the IC50 lay within 0.0001 to 1 µM.

For `C=C(F)C(=O)N1CCN(c2nc(OC3CN(C)C3)nc3c2CCN(c2cccc4ccc(F)c(Cl)c24)C3)C[C@@H]1CC#N` [Example 168], the IC50 was 1 to 10 µM.

With `C=C(F)C(=O)N1CCN(c2nc(OC[C@@H]3CC(F)(F)CN3C)nc3c2CCN(c2cccc4ccc(F)c(Cl)c24)C3)C[C@@H]1CC#N` [Example 169], the IC50 lay within 0.0001 to 1 µM.

With `C=C(F)C(=O)N1CCN(c2nc(OC[C@@H]3C[C@@H](OC)CN3C)nc3c2CCN(c2cccc4ccc(F)c(Cl)c24)C3)C[C@@H]1CC#N` [Example 170], the IC50 lay in the range of 0.0001 to 1 µM.

Turning to `C=C(F)C(=O)N1CCN(c2nc(OCC34CCC(CC3)N4C)nc3c2CCN(c2cccc4ccc(F)c(Cl)c24)C3)C[C@@H]1CC#N` [Example 171], the IC50 is 0.0001 to 1 µM.

With `C=C(F)C(=O)N1CCN(c2nc(OC[C@@H]3C[C@@H](F)CN3C)nc3c2CCN(c2cccc4ccc(F)c(Cl)c24)C3)C[C@@H]1CC#N` [Example 172], the IC50 is 0.0001 to 1 µM.

For the compound `C=C(F)C(=O)N1CCN(c2nc(OCC3CN(C)C3)nc3c2CCN(c2cccc4ccc(F)c(Cl)c24)C3)C[C@@H]1CC#N` [Example 173], the IC50 lay in the range of 0.0001 to 1 µM.

As to `C=C(F)C(=O)N1CCN(c2nc(OCC34CCCN3CC(F)(F)C4)nc3c2CCN(c2cccc4ccc(F)c(Cl)c24)C3)C[C@@H]1CC#N` (stereo partly drawn) [Example 174], the IC50 lay within 0.0001 to 1 µM.

On to `C=C(F)C(=O)N1CCN(c2nc(OCC3(CC)CCCN3C)nc3c2CCN(c2cccc4ccc(F)c(Cl)c24)C3)C[C@@H]1CC#N` (stereo partly drawn) [Example 175], for which the IC50 lay in the range of 0.0001 to 1 µM.

Take `C=C(F)C(=O)N1CCN(c2nc(OCC3CCCO3)nc3c2CCN(c2cccc4ccc(F)c(Cl)c24)C3)C[C@@H]1CC#N` (stereo partly drawn) [Example 176]: the IC50 fell in the range of 0.0001 to 1 µM.

For the compound `C=C(F)C(=O)N1CCN(c2nc(OCC(C)N3CCOCC3)nc3c2CCN(c2cccc4ccc(F)c(Cl)c24)C3)C[C@@H]1CC#N` (stereo partly drawn) [Example 177], the IC50 lay within 0.0001 to 1 µM.

On to `C=C(F)C(=O)N1CCN(c2nc(OCC3CCN3C(C)C)nc3c2CCN(c2cccc4ccc(F)c(Cl)c24)C3)C[C@@H]1CC#N` (stereo partly drawn) [Example 178], for which the IC50 lay within 0.0001 to 1 µM.

As to `C=C(F)C(=O)N1CCN(c2nc(OCC3CCN3CC)nc3c2CCN(c2cccc4ccc(F)c(Cl)c24)C3)C[C@@H]1CC#N` (stereo partly drawn) [Example 179], the IC50 lay within 0.0001 to 1 µM.

On to `C=C(F)C(=O)N1CCN(c2nc(OC[C@@H]3CC4CCN3C4)nc3c2CCN(c2cccc4ccc(F)c(Cl)c24)C3)C[C@@H]1CC#N` (stereo partly drawn) [Example 180], for which the IC50 was in the range of 0.0001 to 1 µM.

With `C=C(F)C(=O)N1CCN(c2nc(OC[C@@H]3C[C@@H](OC)CN3C(C)C)nc3c2CCN(c2cccc4ccc(F)c(Cl)c24)C3)C[C@@H]1CC#N` [Example 181], the IC50 was 0.0001 to 1 µM.

For the compound `C=C(F)C(=O)N1CCN(c2nc(O[C@@H]3CCCC[C@H]3N(C)C)nc3c2CCN(c2cccc4ccc(F)c(Cl)c24)C3)C[C@@H]1CC#N` [Example 182], the IC50 was in the range of 1 to 10 µM.

Regarding `C=C(F)C(=O)N1CCN(c2nc(OC[C@@H]3C[C@@H](F)CN3C(C)C)nc3c2CCN(c2cccc4ccc(F)c(Cl)c24)C3)C[C@@H]1CC#N` [Example 183], the IC50 is 0.0001 to 1 µM.

For the compound `C=C(F)C(=O)N1CCN(c2nc(OCC34CCCN3CC3(CC3)C4)nc3c2CCN(c2cccc4ccc(F)c(Cl)c24)C3)C[C@@H]1CC#N` (stereo partly drawn) [Example 184], the IC50 fell in the range of 0.0001 to 1 µM.

For the compound `C=C(F)C(=O)N1CCN(c2nc(OC[C@@H]3CCCN3CC)nc3c2CCN(c2cccc4ccc(F)c(Cl)c24)C3)C[C@@H]1CC#N` [Example 185], the IC50 was in the range of 0.0001 to 1 µM.

As for `C=C(F)C(=O)N1CCN(c2nc(OCC34CCCN3C(C)CC4)nc3c2CCN(c2cccc4ccc(F)c(Cl)c24)C3)C[C@@H]1CC#N` (stereo partly drawn) [Example 186], the IC50 fell in the range of 0.0001 to 1 µM.

In the case of `C=C(F)C(=O)N1CCN(c2nc(OCC3N(C)CC3(C)C)nc3c2CCN(c2cccc4ccc(F)c(Cl)c24)C3)C[C@@H]1CC#N` (stereo partly drawn) [Example 187], the IC50 was in the range of 0.0001 to 1 µM.

Turning to `C=C(F)C(=O)N1CCN(c2nc(OCC34CC(N(C)C)(C3)C4)nc3c2CCN(c2cccc4ccc(F)c(Cl)c24)C3)C[C@@H]1CC#N` [Example 188], the IC50 lay within 0.0001 to 1 µM.

Regarding `C=C(F)C(=O)N1CCN(c2nc(OCC3CCOC3)nc3c2CCN(c2cccc4ccc(F)c(Cl)c24)C3)C[C@@H]1CC#N` (stereo partly drawn) [Example 189], the IC50 lay in the range of 1 to 10 µM.

Regarding `C=C(F)C(=O)N1CCN(c2nc(OC[C@@H]3[C@@H]4CC[C@@H](C4)N3C)nc3c2CCN(c2cccc4ccc(F)c(Cl)c24)C3)C[C@@H]1CC#N` [Example 190], the IC50 was in the range of 0.0001 to 1 µM.

`C=C(F)C(=O)N1CCN(c2nc(OCCc3nccn3C)nc3c2CCN(c2cccc4ccc(F)c(Cl)c24)C3)C[C@@H]1CC#N` [Example 191]: the IC50 fell in the range of 0.0001 to 1 µM.

As to `C=C(F)C(=O)N1CCN(c2nc(OCC(C)C(F)F)nc3c2CCN(c2cccc4ccc(F)c(Cl)c24)C3)C[C@@H]1CC#N` (stereo partly drawn) [Example 192], the IC50 lay within 1 to 10 µM.

As to `C=C(F)C(=O)N1CCN(c2nc(OCCN3C[C@@H]4CC3CO4)nc3c2CCN(c2cccc4ccc(F)c(Cl)c24)C3)C[C@@H]1CC#N` [Example 193], the IC50 was 0.0001 to 1 µM.

On to `C=C(F)C(=O)N1CCN(c2nc(OC[C@H]3CN(C)CCO3)nc3c2CCN(c2cccc4ccc(F)c(Cl)c24)C3)C[C@@H]1CC#N` [Example 195], for which the IC50 lay within 0.0001 to 1 µM.

For the compound `C=C(F)C(=O)N1CCN(c2nc(OC[C@@H]3CCCN3C3CCC3)nc3c2CCN(c2cccc4ccc(F)c(Cl)c24)C3)C[C@@H]1CC#N` [Example 196], the IC50 is 0.0001 to 1 µM.

In the case of `C=C(F)C(=O)N1CCN(c2nc(OCC3COC3)nc3c2CCN(c2cccc4ccc(F)c(Cl)c24)C3)C[C@@H]1CC#N` [Example 197], the IC50 lay in the range of 0.0001 to 1 µM.

`C=C(F)C(=O)N1CCN(c2nc(OCCCN3C[C@@H]4C[C@H]3CO4)nc3c2CCN(c2cccc4ccc(F)c(Cl)c24)C3)C[C@@H]1CC#N` [Example 198]: the IC50 was 0.0001 to 1 µM.

Regarding `C=C(F)C(=O)N1CCN(c2nc(OCC3CCC(C)(C)N3C)nc3c2CCN(c2cccc4ccc(F)c(Cl)c24)C3)C[C@@H]1CC#N` (stereo partly drawn) [Example 199], the IC50 was 0.0001 to 1 µM.

As for `C=C(F)C(=O)N1CCN(c2nc(OCCNCC(F)(F)F)nc3c2CCN(c2cccc4ccc(F)c(Cl)c24)C3)C[C@@H]1CC#N` [Example 200], the IC50 is 0.0001 to 1 µM.

Turning to `C=C(F)C(=O)N1CCN(c2nc(OCC3COCCO3)nc3c2CCN(c2cccc4ccc(F)c(Cl)c24)C3)C[C@@H]1CC#N` (stereo partly drawn) [Example 201], the IC50 is 0.0001 to 1 µM.
